From US8802655B2, “4-hydroxybenzomorphans” (Rensselaer Polytechnic Institute, priority 2004, dated 2014) come the findings set out here.

Common to all, as to format: binding
One assay addresses μ opioid receptor (Homo sapiens, UniProt P35372). As to conditions: read-out: Ki (nM ± S.E.) [^3H]DAMGO (μ).
The target in the next assay is T1, κ opioid receptor (UniProt P41144).
T1 construct: rows headed: Ki (nM ± S.E.) [^3H]U69,593 (κ); other: radioligand [3H]U69,593

Assay [1] addresses T2, δ opioid receptor (UniProt A0A286XTF2). Also on record: unit μM. The settings on record: radioligand [3H]Naltrindole.
Experimental: (§1) The affinities of the compounds of the invention are determined by the method described in Wentland et al. [BioOrg.
Assay [2] has as its target T2, δ opioid receptor. As to conditions: read-out: Ki (nM ± S.E.) [^3H]Naltrindole (δ); radioligand [3H]Naltrindole.
Experimental: as §1
The mark [3] stands for this setting: radioligand [3H]U69,593; read-out: Ki (nM ± S.E.) [^3H]U69,593 (κ).
Where [4] appears, read: read-out: Ki (nM ± S.E.) [^3H]Naltrindole (δ).
The mark [5] stands for this setting: read-out: Ki (nM ± S.E.) [^3H]U69,593 (κ); radioligand [3H]U69,593.

Read-outs that look alike come from different tables or passages of the source. Where only a bound is given, the exact number is not on record here.

Sequence of μ opioid receptor (P35372 whole entry): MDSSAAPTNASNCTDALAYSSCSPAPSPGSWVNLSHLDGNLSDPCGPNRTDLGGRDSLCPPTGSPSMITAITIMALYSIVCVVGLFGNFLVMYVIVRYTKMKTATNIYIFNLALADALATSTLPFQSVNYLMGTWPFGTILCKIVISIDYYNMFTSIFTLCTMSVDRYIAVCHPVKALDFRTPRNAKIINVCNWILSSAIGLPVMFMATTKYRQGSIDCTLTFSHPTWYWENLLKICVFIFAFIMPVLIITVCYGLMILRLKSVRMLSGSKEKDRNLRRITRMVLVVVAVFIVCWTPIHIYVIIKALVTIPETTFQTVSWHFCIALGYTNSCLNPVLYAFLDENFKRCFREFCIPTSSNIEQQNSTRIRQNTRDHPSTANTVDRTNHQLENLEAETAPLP
Experimental for κ opioid receptor: as §1
Experimental for μ opioid receptor: as §1

Take `NC(=O)c1ccc2c3c1O[C@H]1C(=O)CC[C@@]4(O)[C@@H](C2)N(CC2CC2)CC[C@]314` [Sample 2, 3-Carboxyamido-naltrexone]: the inhibitory constant (Ki) (commonly the dissociation constant of the complex between target and ligand, obtained from inhibition or displacement) stood at 1.9 ± 0.21 nM on μ opioid receptor, 22 ± 0.85 nM on κ opioid receptor (setting [3]) and 110 ± 8.1 nM on δ opioid receptor [1] (setting [4]).
Regarding `NC(=O)c1ccc2c(c1O)[C@]13CCN(CC4CC4)[C@H](C2)[C@]1(O)CCC(=O)C3` [Sample 3, 3-Carboxyamido-4-hydroxy-naltrexone], the values for the Ki at μ opioid receptor, at κ opioid receptor (setting [3]) and on δ opioid receptor [1] (setting [4]) were 0.052 ± 0.004 nM, 0.23 ± 0.018 nM and 2.6 ± 0.26 nM, respectively.
Regarding `COc1ccc2c(c1O)[C@]13CCN(CC4CC4)[C@H](C2)[C@]1(O)CCC(=O)C3` [Sample 4, 3-methoxy-4-hydroxy-naltrexone], the Ki on κ opioid receptor (setting [5]) was 12 ± 0.29 nM; on δ opioid receptor [1] (read-out: Ki [^3H]Naltrindole (δ), unit μM), greater than 10000 nM.
Take `COc1ccc2c(c1O)[C@]13CCN(C)[C@H](C2)[C@@H]1C=CC(=O)C3` [Sample 7, 3-Methoxy-4-hydroxy-6-oxo-morphine]: the Ki on κ opioid receptor (setting [5]) came out at 740 ± 25 nM; at δ opioid receptor [1] (setting [4]), 2000 ± 80 nM.
In the same order, the values of `COc1ccc2c(c1O)[C@]13CCN(C)[C@H](C2)[C@@H]1CCC(=O)C3` [Sample 8, 3-Methoxy-4-hydroxy-6-oxo-7,8-dihydro-morphine] are 350 ± 8.5 nM and 1200 ± 65 nM.
As to `NC(=O)c1ccc2c(c1O)[C@]13CCN(CC4CCC4)[C@H](C2)[C@]1(O)CCC(=O)C3` [Sample 21, 3-Carboxamido-4-hydroxy-6-oxo-nalbuphine], the Ki turned out to be 4.2 ± 0.36 nM on δ opioid receptor [2] and 0.27 ± 0.013 nM on κ opioid receptor (setting [5]).
In the case of `NC(=S)c1ccc2c(c1O)[C@]13CCN(CC4CC4)[C@H](C2)[C@]1(O)CCC(=O)C3` [Sample 26, 3-Thiocarboxyamido-4-hydroxy-naltrexone], the Ki at κ opioid receptor (setting [5]) amounted to 5 ± 0.72 nM; at δ opioid receptor [1] (setting [4]), 140 ± 11 nM.
